# Reference: patent US4610879A (priority 1984, dated 1986)
# Experiments:
# [1] = target: fibrinolytic enzyme from Southern Copperhead venom (Agkistrodon contortrix contortrix, UniProt P28891); assay: biochemical; type: biochemical, Southern Copperhead snake (A.c. contortrix)
# [2] = tested on: human plasma clot; assay: Plasma clot lysis, human plasma; type: biochemical; settings: plasmin 1.08 caseinolytic units per milliliter, after twenty-four hours
# [3] = tested on: rabbit plasma clot; assay: Plasma clot lysis, rabbit plasma; type: biochemical; settings: plasmin 1.08 caseinolytic units per milliliter, after twenty-four hours
# [4] = tested on: azocasein; settings: pure plasmin, for comparison; cited from earlier work
# [5] = tested on: fibrin clots; assay: Preliminary in vitro evaluation against fibrin clots in plasma; type: biochemical; settings: 0.1 mgm purified venom enzyme, or plasmin
# [6] = tested on: autologous or human clots; assay: Streptokinase regimens in animal clot models; type: in vivo, dogs, pigs, and rabbits; settings: increasing the rate of streptokinase infusion
# [7] = tested on: purified human plasminogen; assay: Plasminogen activation measured by S-2251 hydrolysis; type: biochemical; settings: aliquots of the venom enzyme-plasminogen mixture treated with streptokinase
# Sequence of fibrinolytic enzyme from Southern Copperhead venom (P28891 whole entry, looked up): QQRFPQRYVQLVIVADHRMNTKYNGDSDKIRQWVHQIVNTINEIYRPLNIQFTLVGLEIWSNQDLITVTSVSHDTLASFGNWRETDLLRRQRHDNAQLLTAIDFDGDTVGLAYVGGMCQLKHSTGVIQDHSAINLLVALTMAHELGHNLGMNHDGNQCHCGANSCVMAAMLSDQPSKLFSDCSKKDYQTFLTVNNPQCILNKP
compound,measurement,setting,value
α2 -Macroglobulin,Inhibition of Azocaseinolytic Activity,[1],95%
same,Inhibition of the venom fibrinolytic enzyme (in words),[1],inhibits
O=C(O)CN(CCN(CC(=O)O)CC(=O)O)CC(=O)O [EDTA],Inhibition of the venom fibrinolytic enzyme (in words),[1],inhibited
same,inhibition at 50000 µM,[1]; read-out: Inhibition of Azocaseinolytic Activity,92%
plasmin,Plasma clot lysis,[2],did not lyse
same,Plasma clot lysis,[3],did not lyse
same,Plasmin activity,[4],30-35 units per mg
same,Fibrin clot lysis in plasma clotted with thrombin,[5],no fibrin clot lysis
O=C(O)c1cc[c]([Hg][Cl])cc1 [p-Chloromercuribenzoate],Inhibition of the venom fibrinolytic enzyme (in words),[1],not inhibited
streptokinase,Acceleration of clot lysis,[6],ineffective in significantly accelerating clot lysis
same,S-2251 hydrolyzing activity (plasmin formed),[7],hydrolyzing activity was generated
c1cnc2c(c1)ccc1cccnc12 [o-phenanthroline],Inhibition of the venom fibrinolytic enzyme (in words),[1],inhibited
